From patent US20220401385A1, “Combination Therapy Based on PD-1 Signaling Inhibitors” (Kyoto University, priority 2019, published 2022)

System: MC38 cells
Assay: MC38 mouse therapy model, tumor growth and survival
Type: in vivo, C57BL/6 mice
Method: FIG. 1-1 a) CD8^+ T cells or CD3^+ T cells were isolated from mice, and 2×10^5 cells were stimulated with CD3/CD28 beads in 96-well U plates. After 24 hours and 48 hours, cells and culture supernatant were collected, followed by measurement of spermidine (SPD) concentration by mass spectrometry. […] Ten days after inoculation, PD-L1 antibody (2 mg/kg), PD-L1 antibody+SPD (2 mg/kg), or SPD alone was administered. Subsequently, PD-L1 antibody was administered 4 times at a regular interval of 5 days, and SPD was administered 8 times at a regular interval of 3 days. Tumor growth curve and survival curve are shown. c) Draining lymph nodes (DLNs) of mice were isolated 13 days after tumor inoculation, and stained with antibodies to CD8, CD44 and CD62L. The number of cells in draining lymph node (cells/DLN) in each treatment group is shown at the left side. After being gated, CD8^+ T cells were fractionated with CD44 and CD62L into P1 to P4 cell populations. Percentages and cell numbers of P1 to P4 in each treatment group are shown. d) Tumor was isolated 13 days after tumor inoculation and treated with collagenase. Percentages and numbers per mg tumor of tumor-infiltrating CD8^+ CD45.2^+ cells are shown. For statistical analysis, ANOVA was used. * p<0.05, ** p<0.01, *** p<0.001, **** p<0.0001.
FIG. 8 MC38 cells (5×10^5) were intradermally inoculated into C57BL/6 mice. Ten days after inoculation, PD-L1 antibody (2 mg/kg), PD-L1 antibody+SPD (2 mg/kg) or PD-L1 antibody+SPM (6 mg/kg) was administered. Subsequently, […] was administered 4 times at a regular interval of 5 days, whereas SPD and SPM were administered 8 times at a regular interval of 3 days. Tumor growth curve is shown.
MC38 cells (5×10^5) were intradermally injected on the right flank. Ten days after inoculation, PD-L1 antibody (1-111A; prepared by and stored at the Department of Immunology and Genomic Medicine, Graduate School of Medicine, Kyoto University) (Immunology Letters 84 (2002) 57-62) (2 mg/kg), PD-L1 antibody+SPD (2 mg/kg) or SPD alone was administered to mice. Subsequently, PD-L1 antibody was administered 4 times at a regular interval of 5 days, and SPD was administered 8 times at a regular interval of 3 days. Tumors were measured on every alternate day, and tumor volumes were calculated using the formula for typical ellipsoid, π×(length×breadth×height/6).

Structure (SMILES): NCCCNCCCCNCCCN [SPM, spermine]
- effectiveness compared with SPD in enhancing the antitumor effect of PD-1 inhibitory antibody (SPM 6 mg/kg versus SPD 2 mg/kg, each + PD-L1 antibody, MC38): slightly less effective than SPD
- enhancement of the antitumor effect of PD-1 inhibitory antibody (SPM (6 mg/kg) + PD-L1 antibody (2 mg/kg), MC38 in C57BL/6 mice): induced to some extent an enhancement
